This note sets out measurements from patent publication US4515951A, “Preparation of 5,6,7,7a-tetrahydro-4H-thieno[3,2-c]pyridin-2-one compounds” (Sanofi, priority 1980, dated 1985).

One series can be described thus: in vivo. To be noted: mouse, iv. From the text: This study was concerned with the acute, chronic, sub-chronic and delayed toxicities.
Series [1] concerns platelet aggregation by collagen. In words: inhibiting action on platelet aggregation by collagen (COLLAGEN TEST), plasma of orally treated rats. Format: in vivo, Wistar rats. To be noted: Rattus norvegicus, read-out: Percentage inhibition of platelet aggregation (collagen test). The procedure: (§1) A sample of blood is taken from the jugular vein of Wistar rats, which have previously been treated with the compound to be tested. From this blood, which is citrate-treated and centrifuged, there is reconstituted a plasma containing 600,000±20,000 platelets per mm^3, which is employed in all the aggregation measurements.
(§2) 0.4 ml. of plasma is treated in a siliconised tube provided with a bar magnet which is also siliconised. The tube is introduced into an aggregometer connected to an apparatus with which variations in optical density can be recorded. When the light transmission has reached a stable value, 0.5 ml. of a solution containing […] of ADP (adenosine diphosphate)is introduced into the tube.
(§3) Platelet aggregation then causes an increase in light transmission, followed by a reduction in light transmission due to the subsequent disaggregation stage.
(§4) The maximum variation in optical density thus determined relative to that of a plasma free of platelets characterises the intensity of aggregation.
(§5) The measurements are carried out during the 2 hours which follow the taking of the blood sample, this sample being taken 3 hours after treatment with the derivative to be tested.
The ADP solution is replaced by a solution of collagen (extracted from cattle tendons).
(§6) Groups of 20 rats were used. Each group received a single dose of the compound to be tested, administered orally, the same compound being administered at different doses ranging from 5 mg./kg. to 100 mg./kg.
(§7) The results obtained are given in the following Tables II and III, which show the percentage inhibition of platelet aggregation obtained relative to the control experiment, 3 hours after treatment with the compound to be tested.

Series [2] has as its system platelet aggregation by ADP. In words: inhibiting action on platelet aggregation by ADP (ADP TEST), plasma of orally treated rats. The format is in vivo, Wistar rats. To be noted: Rattus norvegicus; for inhibition at 5 mg/kg / inhibition at 12.5 mg/kg / inhibition at 25 mg/kg / inhibition at 50 mg/kg / inhibition at 100 mg/kg: read-out: Percentage inhibition of platelet aggregation (ADP test). The procedure:
as §1, §2, §3, §4, §5, §6, §7

The next series concerns experimental thrombosis. In words: anti-thrombosis activity, experimental thrombosis caused by extracorporal circulation (Umetsu and Sonoi). The format is in vivo, rats. To be noted: control (5% gum arabic) 30.41. The procedure:
This activity was studied by the experimental thrombosis method caused by extracorporal circulation, described by Umetsu and Sonoi (Thrombos. Haemost., 39, […]).
The left jugular vein and the right external carotid are exposed in rats anaesthetised by an intraperitoneal injection of pentobarbital. A shunt is provided which consists of a central catheter and two lateral catheters. A natural white silk thread is introduced into the central part and the circulation is restarted for 20 minutes. After stopping the circulation by clamping, the thread is gently withdrawn and weighed immediately.
Treatment was carried out for 48 hours, 24 hours and 2 hours before the start of the blood circulation in shunt.
The test compounds were administered orally to different groups of animals in the form of a suspension in 10 ml. of 5% gum arabic/kg., the doses used being 12.5 mg./kg., 25 mg./kg., 50 mg./kg., 100 mg./kg. and 200 mg./kg.

[3] abbreviates: 5 mg/kg oral, single dose, 3 hours after treatment, relative to control.
[4] abbreviates: 12.5 mg/kg oral, single dose, 3 hours after treatment, relative to control.
Where [5] appears, read: 25 mg/kg oral, single dose, 3 hours after treatment, relative to control.
Where [6] appears, read: 50 mg/kg oral, single dose, 3 hours after treatment, relative to control.
The mark [7] stands for this setting: 100 mg/kg oral, single dose, 3 hours after treatment, relative to control.

Like-named read-outs stand apart in the source and are kept apart here.

What is called LD50 is the dose at which mortality reaches 50%. A lower LD50 goes with a more toxic substance. The term inhibition denotes the percentage by which the read-out fell short of the control. As to `N#Cc1ccccc1CN1CCC2SC(=O)C=C2C1` (centres unmarked) [Derivative 7, 5-(o-Cyanobenzyl)-5,6,7,7a-tetrahydro-4H-thieno[3,2-c]-pyridin-2-one], the LD50 at 24 h in “in vivo” was found to be 254 mg/kg. The inhibition at 5 mg/kg came to 16.5% in series [1] (setting [3]) and 47.6% in series [2] (setting [3]). The inhibition at 12.5 mg/kg in series [1] (setting [4]) is 44.5%; in series [2] (setting [4]), 82.7%. For the same compound, the results for the inhibition at 25 mg/kg in series [1] (setting [5]) and in series [2] (setting [5]) were 86.2% and 82.9%, respectively. The inhibition at 50 mg/kg in series [1] (setting [6]) came out at 87.9%; in series [2] (setting [6]), 83.1%. For the same compound, the inhibition at 100 mg/kg in series [1] (setting [7]) came to 89.4%; in series [2] (setting [7]) it was 83.2%.

`N#Cc1ccccc1CN1CCc2sccc2C1` [Reference compound B, 5-(2-cyanobenzyl)-4,5,6,7-tetrahydrothieno[3,2-c]pyridine, reference compound] gave an LD50 at 24 h in the series “in vivo” of 45 mg/kg. Besides, the inhibition at 5 mg/kg in series [1] (setting [3]) and in series [2] (setting [3]) was 0% throughout. The inhibition at 12.5 mg/kg in series [1] (setting [4]) and in series [2] (setting [4]) was 0% throughout. The inhibition at 25 mg/kg in series [1] (setting [5]) worked out at 38.5%; in series [2] (setting [5]), 0%. Further, the inhibition at 50 mg/kg in series [1] (setting [6]) was 51.2%; in series [2] (setting [6]) it was 35.5%. Moreover, the inhibition at 100 mg/kg worked out at 78.8% in series [1] (setting [7]) and 63.8% in series [2] (setting [7]). Besides, in series [2] (3 h, oral, rats, stated for the aggregation tests (ADP and collagen), read-out: dose at which significant (or similar) platelet aggregation inhibiting activity manifests itself), the minimal effective dose worked out at 100 mg/kg.

Compound `CC(c1ccccc1Cl)N1CCC2SC(=O)C=C2C1` (centres unmarked) [Derivative 5, 5-[1-(2-Chlorophenyl)-ethyl]-5,6,7,7a-tetrahydro-4H-thieno[3,2-c]pyridin-2-one] registered an LD50 at 24 h in the series “in vivo” of 286 mg/kg. In addition, the inhibition at 5 mg/kg came to 17% in series [1] (setting [3]) and 48.4% in series [2] (setting [3]). For the same compound, the inhibition at 12.5 mg/kg was 44.8% in series [1] (setting [4]) and 82% in series [2] (setting [4]). Also, the inhibition at 25 mg/kg was 86.1% in series [1] (setting [5]) and 82.4% in series [2] (setting [5]). Moreover, the inhibition at 50 mg/kg in series [1] (setting [6]) was found to be 87.8%; in series [2] (setting [6]), 83.2%. The inhibition at 100 mg/kg in series [1] (setting [7]) was found to be 88%; in series [2] (setting [7]) it was 83.5%.

Turning to `O=C1C=C2CN(Cc3ccccc3)CCC2S1` (centres unmarked) [Derivative 2, 5-Benzyl-5,6,7,7a-tetrahydro-4H-thieno[3,2-c]-pyridin-2-one], in the series “in vivo”, the median lethal dose (LD50) at 24 h worked out at 116 mg/kg. Further, in series [1] (po, 3 h), the inhibition at 5 mg/kg worked out at 16.5%, the inhibition at 12.5 mg/kg came out at 44.2%, the inhibition at 25 mg/kg is 85.8% and the inhibition at 50 mg/kg came to 87%. The inhibition at 100 mg/kg in series [1] (po, 3 h) was determined as 87.8%. Further, in series [2] (po, 3 h), the inhibition at 5 mg/kg came out at 47.8%, the inhibition at 12.5 mg/kg worked out at 82.6%, the inhibition at 25 mg/kg was determined as 82.9% and the inhibition at 50 mg/kg worked out at 83.7%. Further, the inhibition at 100 mg/kg in series [2] (po, 3 h) was 83.7%.

As for `O=C1C=C2CN(Cc3ccccc3[N+](=O)[O-])CCC2S1` (centres unmarked) [Derivative 8, 5-(o-Nitrobenzyl)-5,6,7,7a-tetrahydro-4H-thieno[3,2-c]-pyridin-2-one], the LD50 at 24 h in “in vivo” was determined as 278 mg/kg. In addition, the inhibition at 5 mg/kg stood at 17% in series [1] (setting [3]) and 48% in series [2] (setting [3]). Besides, the inhibition at 12.5 mg/kg in series [1] (setting [4]) stood at 44.6%; in series [2] (setting [4]) it was 82.8%. Further, the inhibition at 25 mg/kg is 86.2% in series [1] (setting [5]) and 83.1% in series [2] (setting [5]). Also, the inhibition at 50 mg/kg in series [1] (setting [6]) was 88.2%; in series [2] (setting [6]) it was 83.3%. The inhibition at 100 mg/kg in series [1] (setting [7]) came to 88.7%; in series [2] (setting [7]), 83.4%.

With `O=C1C=C2CN(Cc3ccc(Cl)cc3)CCC2S1` (centres unmarked) [Derivative 3, 5-(p-Chlorobenzyl)-5,6,7,7a-tetrahydro-4H-thieno-[3,2-c]pyridin-2-one], in the series with experimental thrombosis (12.5 mg/kg oral, 48, 24 and 2 hours before), the “Average weight of the thrombi” value came to 26.72 mg. Also, in the series with experimental thrombosis (25 mg/kg oral, 48, 24 and 2 hours before), the “Average weight of the thrombi” value was 12.04 mg. Also, in the series on experimental thrombosis (50 mg/kg oral, 48, 24 and 2 hours before), the “Average weight of the thrombi” value is recorded as 5.96 mg. Besides, in the series on experimental thrombosis (100 mg/kg oral, 48, 24 and 2 hours before), the “Average weight of the thrombi” value turned out to be 4.62 mg. Also, the LD50 at 24 h in the series “in vivo” was 125 mg/kg. Besides, in series [1] (po, 3 h), the inhibition at 5 mg/kg is 17.4%, the inhibition at 12.5 mg/kg was determined as 44.9%, the inhibition at 25 mg/kg is 86.5% and the inhibition at 50 mg/kg was determined as 87.2%. In addition, in series [1] (po, 3 h), the inhibition at 100 mg/kg worked out at 88.1%. For the same compound, in series [2] (po, 3 h), the inhibition at 5 mg/kg turned out to be 48.1%, the inhibition at 12.5 mg/kg turned out to be 82.4%, the inhibition at 25 mg/kg turned out to be 83% and the inhibition at 50 mg/kg came to 83.5%. Moreover, the inhibition at 100 mg/kg in series [2] (po, 3 h) stood at 83.6%.

Consider `O=C1C=C2CN(Cc3ccccc3Br)CCC2S1` (centres unmarked) [Derivative 9, 5-(o-Bromobenzyl)-5,6,7,7a-tetrahydro-4H-thieno[3,2-c]-pyridin-2-one], for which the LD50 at 24 h in “in vivo” amounted to 118 mg/kg. Besides, in series [1] (po, 3 h), the inhibition at 5 mg/kg turned out to be 17.2%, the inhibition at 12.5 mg/kg was determined as 44.9%, the inhibition at 25 mg/kg is 86.4% and the inhibition at 50 mg/kg is 87.6%. Moreover, the inhibition at 100 mg/kg in series [1] (po, 3 h) stood at 88.6%. Moreover, in series [2] (po, 3 h), the inhibition at 5 mg/kg was 48.4%, the inhibition at 12.5 mg/kg amounted to 83.1%, the inhibition at 25 mg/kg turned out to be 83.4% and the inhibition at 50 mg/kg is 83.7%. For the same compound, in series [2] (po, 3 h), the inhibition at 100 mg/kg came out at 84%.

Regarding `CCC(c1ccccc1Cl)N1CCC2SC(=O)C=C2C1` (centres unmarked) [Derivative 6, 5-[1-(2-Chlorophenyl)-propyl]-5,6,7,7a-tetrahydro-4H-thieno[3,2-c]pyridin-2-one], in the series “in vivo”, the LD50 at 24 h was 121 mg/kg. For the same compound, the inhibition at 5 mg/kg amounted to 16.8% in series [1] (setting [3]) and 48.7% in series [2] (setting [3]). Also, the inhibition at 12.5 mg/kg stood at 44.4% in series [1] (setting [4]) and 83% in series [2] (setting [4]). Also, the values for the inhibition at 25 mg/kg in series [1] (setting [5]) and in series [2] (setting [5]) were 85.7% and 83.4%, respectively. Also, the figures for the inhibition at 50 mg/kg in series [1] (setting [6]) and in series [2] (setting [6]) were 89% and 83.9%, respectively. The inhibition at 100 mg/kg came to 89.2% in series [1] (setting [7]) and 83.9% in series [2] (setting [7]).

Regarding `Cc1ccccc1CN1CCC2SC(=O)C=C2C1` (centres unmarked) [Derivative 4, 5-(o-Methylbenzyl)-5,6,7,7a-tetrahydro-4H-thieno-[3,2-c]pyridin-2-one], the LD50 at 24 h in “in vivo” turned out to be 110 mg/kg. Moreover, in series [1] (po, 3 h), the inhibition at 5 mg/kg was 17.1%, the inhibition at 12.5 mg/kg worked out at 45.2%, the inhibition at 25 mg/kg was 85.9% and the inhibition at 50 mg/kg is 88.1%. Moreover, the inhibition at 100 mg/kg in series [1] (po, 3 h) amounted to 88.2%. Further, in series [2] (po, 3 h), the inhibition at 5 mg/kg was 48%, the inhibition at 12.5 mg/kg turned out to be 81.9%, the inhibition at 25 mg/kg worked out at 82.1% and the inhibition at 50 mg/kg is 82.8%. For the same compound, the inhibition at 100 mg/kg in series [2] (po, 3 h) was 82.9%.
